Results from patent US8729254B2, “Derivative of glucose and vitamin F, compositions comprising it, uses and preparation process” (L'Oreal, priority 2002, dated 2014).

How the values were obtained:
[1] = 0.1% by weight in ethanol/isopropanol/water (64/16/20 by volume), 45° C., 2 months; hydrolysed glucopyranose linoleate by HPLC
Protocol: The stability of the compounds disclosed herein were assessed (measured by the hydrolysis of the esters).
Solutions comprising 0.1% by weight of the compounds in an ethanol/isopropanol/water mixture (64/16/20 by volume) were prepared. These solutions were left in a chamber thermostatically maintained at 45° C. for 2 months.

[2] = target: T1, purified soybean 15-lipoxygenase L1 (Glycine max, UniProt P08170); assay: inhibition of purified soybean 15-lipoxygenase (oxymeter, Vmax of oxygen consumption); type: biochemical; details: test compound at 1 mM, relative to the control (DMSO), 25° C., pH 7.5, average of 10 tests
T1 sequence (P08170 1-839): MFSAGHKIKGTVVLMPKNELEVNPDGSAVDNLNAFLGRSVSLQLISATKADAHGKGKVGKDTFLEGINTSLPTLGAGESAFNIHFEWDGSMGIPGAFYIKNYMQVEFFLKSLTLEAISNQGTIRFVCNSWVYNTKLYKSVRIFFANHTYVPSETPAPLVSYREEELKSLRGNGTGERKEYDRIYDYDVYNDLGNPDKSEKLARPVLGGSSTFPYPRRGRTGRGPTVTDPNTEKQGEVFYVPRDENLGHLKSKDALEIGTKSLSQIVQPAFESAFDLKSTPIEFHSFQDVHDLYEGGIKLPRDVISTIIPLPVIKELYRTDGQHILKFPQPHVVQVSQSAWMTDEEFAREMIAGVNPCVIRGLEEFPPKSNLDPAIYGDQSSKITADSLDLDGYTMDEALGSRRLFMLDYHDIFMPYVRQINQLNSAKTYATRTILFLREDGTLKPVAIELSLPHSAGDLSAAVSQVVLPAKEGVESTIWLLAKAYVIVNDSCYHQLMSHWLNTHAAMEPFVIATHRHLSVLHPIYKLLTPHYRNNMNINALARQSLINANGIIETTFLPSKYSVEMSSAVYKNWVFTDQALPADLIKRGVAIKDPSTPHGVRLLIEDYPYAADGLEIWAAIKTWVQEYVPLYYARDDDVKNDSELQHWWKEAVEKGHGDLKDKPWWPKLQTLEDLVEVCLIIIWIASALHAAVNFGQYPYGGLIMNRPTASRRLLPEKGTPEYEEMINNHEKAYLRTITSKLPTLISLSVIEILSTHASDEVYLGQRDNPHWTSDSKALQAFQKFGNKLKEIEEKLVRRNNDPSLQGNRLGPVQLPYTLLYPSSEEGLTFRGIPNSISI
Protocol: The effect of the compounds of disclosed herein on the inhibition of purified soybean 15-lipoxygenase was thus tested, given that soybean 15-lipoxygenase is a study model commonly used as a predictive model for human 5-lipoxygenase.
The test performed was as follows:
preparation of a 100 mM, pH 7.5 Tris buffer solution
preparation of a suspension of purified soybean 15-lipoxygenase L1 (0.20 mg/ml) in a pH 7.5100 mM Tris buffer; storage in ice;
calibration of the oxymeter, tank equipped with a magnetic stirring system and thermostatically maintained at 25° C.;
preparation of an aqueous-alcoholic solution (absolute ethanol/water, 5/95, v/v) of potassium arachidonate at a concentration of 7.5 mM;
preparation of a solution of the test compound at a concentration of 30 mM in dimethyl sulphoxide (DMSO);
introduction into the oxymeter tank, with stirring, of 456.6 μl of buffer solution, 16.7 μl of potassium arachidonate solution and 16.7 μl of solution of the test compound or 16.7 μl of DMSO in the case of the “control” measurement.
The recorder was switched on and 10 μl of suspension of 15-lipoxygenase was introduced into the tank.
The maximum rate of consumption of oxygen (Vmax) was recorded.
The various Vmax values were compared with that of the control and the results were expressed as a % thereof. The test was repeated 10 times and an average of these 10 tests were determined.

| % of hydrolysis [1] [%] | inhibition at 1000 µM [2] [%] | SMILES |
| --- | --- | --- |
| 7 | 71 | CCCCCC=CCC=CCCCCCCCC(=O)OC[C@H]1OC(O)[C@H](O)[C@@H](O)[C@@H]1O (stereo partly drawn) [Compound A, 6-O-octadeca-9,12-dienoyl-D-glucopyranose] |
| – | 30 | CCCCCCCCC=CCCCCCCCC(=O)OC[C@H]1OC(O)[C@H](O)[C@@H](O)[C@@H]1O (stereo partly drawn) [Compound B, 6-O-octadeca-9-enoyl-D-glucopyranose] |
| – | 49 | CCCCCCCCCCCCCCCCCC(=O)OC[C@H]1OC(O)[C@H](O)[C@@H](O)[C@@H]1O (stereo partly drawn) [Compound C, 6-O-octadecanoyl-D-glucopyranose] |
| – | 15 | CCCCCCCCCCCCCCCC(=O)OC[C@H]1OC(O)[C@H](O)[C@@H](O)[C@@H]1O (stereo partly drawn) [Compound D, 6-O-hexadecanoyl-D-glucopyranose] |
| 30 | 80 | CCCCCC=CCC=CCCCCCCCC(=O)O[C@H]1[C@H](O)[C@@H](CO)OC(O)[C@@H]1O (stereo partly drawn) [Compound E, 3-O-octadeca-9,12-dienoyl-D-glucopyranose] |
